# Measured values taken from PMC3561402, “Signaling Pathways of ESE-16, an Antimitotic and Anticarbonic Anhydrase Estradiol Analog, in Breast Cancer Cells” (PLoS ONE, 2013).
# Molecular target: T1, carbonic anhydrase II (wild-type CAII) (Homo sapiens, UniProt P00918)
# T1 construct: gene CA2
# Test: […] exchange, membrane inlet mass spectrometry; Henderson tight-binding analysis
# Assay type: biochemical
smiles,measurement,value
"CCc1cc2c(cc1OS(N)(=O)=O)CC[C@@H]1[C@@H]2CC[C@]2(C)C=CC[C@@H]12 [ESE-16, 2-ethyl-3-O-sulphamoyl-estra-1,3,5(10)16-tetraene]",Ki,569 ± 61 nM
